Marks after values point to notes of the source that are not given here.
Assays:
LLC-PK1 cells = assay: Protective activity for renal cells against AAPH-induced oxidative damage (MTT viability); assay type: cell-based; details: 10 mM AAPH
Text: Renal cells, i.e., LLC-PK1 cell lines, are vulnerable to oxidative damage, and AAPH, which is a radical releasing agent, combines with oxygen molecules at a very rapid speed to produce a peroxyl radical and trigger lipid peroxidation, resulting in cytotoxicity (Miki et al., Arch. Biochem. Biophy., 258(2), 373-380, 1987). Thus, a protective activity for renal cells may be evaluated using such an oxidative damage of the LLC-PK1 cell lines using AAPH.
A protective effect for nephrotoxicity was evaluated using renal cells (LLC-PK1) with reference to a method reported in the publication (Yokozawa et al., Food Chem., 48, pp5068-5073, 2000) as follows.
First, the LLC-PK1 cells were cultured in an incubator with conditions of 37° C., 95% air, and 5% CO2 by using a DMEM/F12 medium (Gibco BRL Life Technologies, Grand Island, NY, USA) supplemented with 5% fetal bovine serum (Gibco BRL Life Technologies), 50 units/ml of penicillin G, and 50 μg/ml of streptomycin (Gibco BRL Life Technologies). The incubated LLC-PK1 cells were introduced into a 96-well incubation plate at a concentration of 10^4 […] and then stabilized for 2 hours. Afterwards, a radical generating reagent (i.e., 10 mM AAPH dissolved in a medium) was added to each well and cultured for 24 hours, and 50 μl of an MTT (1 mg/ml) reagent was then added to each well and incubated at 37° C. 4 hours thereafter, the medium containing MTT was removed and 100 μl of dimethyl sulfoxide was added to each well. Then, absorbance of the sample was measured using a detection wavelength of 540 nm in a SPECTRAmax 340PC (Molecular Devices, Sunnyvale, Calif., USA) microplate reader and a viability of the LLC-PK1 cells was measured using the absorbance thereof.

[1] = DPPH radical scavenging ability (antioxidative activity); assay type: biochemical; details: 60 μM DPPH, 30 minutes; FIGS. 5 to 13
Procedure: A DPPH radical scavenging ability was evaluated using a modified method from that described by Hatano et al (Hatano et al., Chem. Pharm. Bull., 37(8), pp 2016-2021, 1989). 100 μl of 60 μM DPPH was added to 100 μl of each of a plurality of sample solutions, the resultant solution was stirred and left for 30 minutes, and the absorbance of the resultant mixture was measured at 540 nm. An antioxidative activity (electron donating ability) was confirmed by measuring a decreasing ratio in absorbances of experimental groups comparing with a control of the sample solutions.

| SMILES | viability at 10 µg/mL (LLC-PK1 cells; Sus scrofa, sample 10 μg/ml, 24 hours, MTT, read-out: Cell viability) [%] | viability at 100 µg/mL (LLC-PK1 cells; Sus scrofa, sample 100 μg/ml, 24 hours, MTT, read-out: Cell viability) [%] | DPPH radical scavenging ability (in words) [1] | protective activity for renal cells (in words) (LLC-PK1 cells) | Cell viability (LLC-PK1 cells; sample 10 μg/ml, 24 hours, MTT) |
| --- | --- | --- | --- | --- | --- |
| N=C(N)NN [aminoguanidine] | 86.7 ± 14.2 | 88 ± 4.1 |  |  |  |
| CC(C)=CCC[C@](C)(O[C@@H]1O[C@H](CO)[C@@H](O)[C@H](O)[C@H]1O)[C@H]1CC[C@]2(C)[C@@H]1[C@H](O)C[C@@H]1[C@@]3(C)CC[C@H](O)C(C)(C)[C@@H]3[C@@H](O[C@@H]3O[C@H](CO)[C@@H](O)[C@H](O)[C@H]3O[C@@H]3O[C@@H](C)[C@H](O)[C@@H](O)[C@H]3O)C[C@]12C [ginsenoside Re] |  |  | low reactive oxygen scavenging ability | inhibited cell damage at a high concentration | 89.6 ± 9.7^a % |

Reference: patent US20130178436A1, “COMPOSITION FOR PREVENTING, IMPROVING, OR TREATING RENAL DISEASE INCLUDING MAILLARD BROWNING REACTION PRODUCTS OF PANAX SPECIES PLANT EXTRACT” (Korea Institute of Science and Technology, priority 2012, published 2013)
